Patent US20160158149A1, “Inhalable Pharmaceutical Compositions and the Inhaler Devices Containing Them” (priority 2013, published 2016)

Assays:
[1] = Pharmacokinetic data (AUC, Cmax) after inhalation, invention versus conventional assembly; format: in vivo, test persons
Description: (§1) Pharmacokinetic data of an assembly for an inhaler according to the different embodiments of the invention described above together with the different variants of the pharmaceutical composition of the invention including salmeterol xinafoate and fluticasone proprionate were determined in comparison to the pharmacokinetic data of a conventional assembly including a disk-shaped inhaler housing a mixture of salmeterol xinafoate and fluticasone proprionate. Such a disk shaped inhaler is for example described in the PCT application WO 2001/97886 A1.
(§2) In particular, the fine particle dose (FPD), which is the amount of particles with an aerodynamic diameter of between 1 to 5 μm, the area under the curve (AUC), corresponds to the integral of the plasma concentration of an administered pharmaceutical drug substance versus an interval of definite time and Cmax, which is the maximum concentration measured for a pharmaceutical in the blood of test persons after it was administrated and prior to the administration of a second dose, were determined.

[2] = Fine particle dose (FPD) of the inhaler assembly, invention versus conventional; format: physicochemical; conditions: aerodynamic diameter 1 to 5 μm, assembly of the invention relative to conventional disk-shaped inhaler
Description: as §1, §2

Row | Compound | Ratio invention/conventional Point estimate AUC ([1]; human, in vivo) | Ratio invention/conventional Point estimate Cmax ([1]; human, in vivo, inhaled or intranasal) | Ratio invention/conventional FPD 1-5 μm [2] | Ratio invention/conventional Point estimate Cmax ([1]; maximum concentration in blood of test persons, assembly of the invention relative to conventional disk-shaped inhaler) | Ratio invention/conventional Point estimate AUC ([1]; plasma concentration versus time, assembly of the invention relative to conventional disk-shaped inhaler)
1 | OCc1cc(C(O)CNCCCCCCOCCCCc2ccccc2)ccc1O (stereo not drawn) [Salmeterol, salmeterol xinafoate] | 1.25 | 1.69 | 0.90 | – | –
2 | CCC(=O)O[C@]1(C(=O)SCF)[C@H](C)C[C@H]2[C@@H]3C[C@H](F)C4=CC(=O)C=C[C@]4(C)[C@@]3(F)[C@@H](O)C[C@@]21C [Fluticasone, fluticasone proprionate] | – | – | 0.93 | 1.66 | 1.42
